According to PubChem BioAssay AID1963449 (Molecular Pharmacology Branch, DTP, NCI, 2024):
Values belong to the compound of their own block, whether it stands above or below them.

Tested on: 596521-263-R-J1-PDC complex spheroid growth
Experiment: Anticancer human tumor 596521-263-R-J1-PDC patient-derived soft tissue sarcoma cell line growth inhibition [Asc]
Conditions: for IC50: curve of first compound; for viability, T/C: stronger effect = lower value
Outline: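 Tumor cells were grown as complex spheroids with human endothelial cells (HUVEC) and human mesenchymal stem cells as stroma. Agents were tested alone and in combination, in half-log steps down from the clinical Cmax, or from 10 microM where Cmax was unknown.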

[1] = second compound 0.00949 µM, first compound 0.0316 µM
[2] = second compound 0.00949 µM, first compound 0.1 µM
[3] = second compound 0.00949 µM, first compound 0.316 µM
[4] = second compound 0.00949 µM, first compound 1 µM
[5] = second compound 0.00949 µM, first compound 3.16 µM
[6] = second compound 0.00949 µM, first compound 10 µM
[7] = second compound 0.03 µM, first compound 0.0316 µM
[8] = second compound 0.03 µM, first compound 0.1 µM
[9] = second compound 0.03 µM, first compound 0.316 µM
[10] = second compound 0.03 µM, first compound 1 µM
[11] = second compound 0.03 µM, first compound 3.16 µM
[12] = second compound 0.03 µM, first compound 10 µM
[13] = second compound 0.0949 µM, first compound 0.0316 µM
[14] = second compound 0.0949 µM, first compound 0.1 µM
[15] = second compound 0.0949 µM, first compound 0.316 µM
[16] = second compound 0.0949 µM, first compound 1 µM
[17] = second compound 0.0949 µM, first compound 3.16 µM
[18] = second compound 0.0949 µM, first compound 10 µM
[19] = second compound 0.3 µM, first compound 0.0316 µM
[20] = second compound 0.3 µM, first compound 0.1 µM
[21] = second compound 0.3 µM, first compound 0.316 µM
[22] = second compound 0.3 µM, first compound 1 µM
[23] = second compound 0.3 µM, first compound 3.16 µM
[24] = second compound 0.3 µM, first compound 10 µM
[25] = second compound 0.949 µM, first compound 0.0316 µM
[26] = second compound 0.949 µM, first compound 0.1 µM
[27] = second compound 0.949 µM, first compound 0.316 µM
[28] = second compound 0.949 µM, first compound 1 µM
[29] = second compound 0.949 µM, first compound 3.16 µM
[30] = second compound 0.949 µM, first compound 10 µM
[31] = second compound 3 µM, first compound 0.0316 µM
[32] = second compound 3 µM, first compound 0.1 µM
[33] = second compound 3 µM, first compound 0.316 µM
[34] = second compound 3 µM, first compound 1 µM
[35] = second compound 3 µM, first compound 3.16 µM
[36] = second compound 3 µM, first compound 10 µM
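Further: spheroids exposed to compounds for 7 days.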

IC50 (second compound 0.00949 µM): > 10 µM
IC50 (second compound 0.03 µM): > 10 µM
IC50 (second compound 0.0949 µM): > 10 µM
IC50 (second compound 0.3 µM): > 10 µM
IC50 (second compound 0.949 µM): > 10 µM
IC50 (second compound 3 µM): > 10 µM
Compound: C#Cc1c(F)ccc2cc(O)cc(-c3ncc4c(N5CC6CCC(C5)N6)nc(OCC56CCCN5CC(F)C6)nc4c3F)c12 (stereo not drawn) + CCN1C(C(=O)NC23CCC(C(=O)O)(CC2)CC3)C(c2cccc(Cl)c2F)C2(C(=O)Nc3cc(Cl)ccc32)C12CCCCC2
viability, T/C [1]: 90.9%
viability, T/C [2]: 88.8%
viability, T/C [3]: 93.7%
viability, T/C [4]: 93.1%
viability, T/C [5]: 100%
viability, T/C [6]: 87.7%
viability, T/C [7]: 111%
viability, T/C [8]: 101%
viability, T/C [9]: 85.8%
viability, T/C [10]: 96.2%
viability, T/C [11]: 107%
viability, T/C [12]: 80%
viability, T/C [13]: 99.3%
viability, T/C [14]: 84.3%
viability, T/C [15]: 96.9%
viability, T/C [16]: 92%
viability, T/C [17]: 102%
viability, T/C [18]: 84.8%
viability, T/C [19]: 103%
viability, T/C [20]: 98.9%
viability, T/C [21]: 97.8%
viability, T/C [22]: 100%
viability, T/C [23]: 119%
viability, T/C [24]: 85.7%
viability, T/C [25]: 92.4%
viability, T/C [26]: 108%
viability, T/C [27]: 103%
viability, T/C [28]: 98.7%
viability, T/C [29]: 87%
viability, T/C [30]: 80.3%
viability, T/C [31]: 81.3%
viability, T/C [32]: 85.7%
viability, T/C [33]: 85.1%
viability, T/C [34]: 88.8%
viability, T/C [35]: 88.2%
viability, T/C [36]: 78.9%

IC50 (second compound 0.00949 µM): 5.24 µM
IC50 (second compound 0.03 µM): 5.11 µM
IC50 (second compound 0.0949 µM): 5.18 µM
IC50 (second compound 0.3 µM): 5.11 µM
IC50 (second compound 0.949 µM): 4.73 µM
IC50 (second compound 3 µM): 4.53 µM
Compound: C=C(F)C(=O)N1CCN(c2nc(OCC3CCCN3C)nc3c2CCN(c2cccc4cccc(Cl)c24)C3)CC1CC#N (stereo not drawn) + CCN1C(C(=O)NC23CCC(C(=O)O)(CC2)CC3)C(c2cccc(Cl)c2F)C2(C(=O)Nc3cc(Cl)ccc32)C12CCCCC2
viability, T/C [1]: 106%
viability, T/C [2]: 102%
viability, T/C [3]: 91.2%
viability, T/C [4]: 104%
viability, T/C [5]: 88.7%
viability, T/C [6]: 0.73%
viability, T/C [7]: 101%
viability, T/C [8]: 90.4%
viability, T/C [9]: 97.5%
viability, T/C [10]: 97.3%
viability, T/C [11]: 85.3%
viability, T/C [12]: 0.62%
viability, T/C [13]: 94.3%
viability, T/C [14]: 96.4%
viability, T/C [15]: 106%
viability, T/C [16]: 101%
viability, T/C [17]: 86.1%
viability, T/C [18]: 1.83%
viability, T/C [19]: 98.7%
viability, T/C [20]: 107%
viability, T/C [21]: 101%
viability, T/C [22]: 100%
viability, T/C [23]: 83.6%
viability, T/C [24]: 2.96%
viability, T/C [25]: 109%
viability, T/C [26]: 97.9%
viability, T/C [27]: 108%
viability, T/C [28]: 105%
viability, T/C [29]: 75.3%
viability, T/C [30]: 2.73%
viability, T/C [31]: 97%
viability, T/C [32]: 98.6%
viability, T/C [33]: 102%
viability, T/C [34]: 80.2%
viability, T/C [35]: 75.5%
viability, T/C [36]: 2.66%

IC50 (second compound 0.00949 µM): > 10 µM
IC50 (second compound 0.03 µM): > 10 µM
IC50 (second compound 0.0949 µM): > 10 µM
IC50 (second compound 0.3 µM): > 10 µM
IC50 (second compound 0.949 µM): > 10 µM
IC50 (second compound 3 µM): > 10 µM
Compound: C=CC(=O)N1CCN(c2nc(=O)n(-c3c(C)ccnc3C(C)C)c3nc(-c4c(O)cccc4F)c(F)cc23)C(C)C1 (stereo not drawn) + CCN1C(C(=O)NC23CCC(C(=O)O)(CC2)CC3)C(c2cccc(Cl)c2F)C2(C(=O)Nc3cc(Cl)ccc32)C12CCCCC2
viability, T/C [1]: 102%
viability, T/C [2]: 101%
viability, T/C [3]: 123%
viability, T/C [4]: 114%
viability, T/C [5]: 113%
viability, T/C [6]: 70.7%
viability, T/C [7]: 108%
viability, T/C [8]: 99.6%
viability, T/C [9]: 94.5%
viability, T/C [10]: 125%
viability, T/C [11]: 114%
viability, T/C [12]: 67.7%
viability, T/C [13]: 118%
viability, T/C [14]: 111%
viability, T/C [15]: 113%
viability, T/C [16]: 108%
viability, T/C [17]: 103%
viability, T/C [18]: 86.1%
viability, T/C [19]: 108%
viability, T/C [20]: 99.2%
viability, T/C [21]: 106%
viability, T/C [22]: 117%
viability, T/C [23]: 112%
viability, T/C [24]: 73.7%
viability, T/C [25]: 103%
viability, T/C [26]: 101%
viability, T/C [27]: 96.2%
viability, T/C [28]: 113%
viability, T/C [29]: 111%
viability, T/C [30]: 80.9%
viability, T/C [31]: 86.8%
viability, T/C [32]: 81.9%
viability, T/C [33]: 91.6%
viability, T/C [34]: 98.2%
viability, T/C [35]: 89.4%
viability, T/C [36]: 70.3%

IC50 (second compound 0.00949 µM): > 1 µM
IC50 (second compound 0.03 µM): > 1 µM
IC50 (second compound 0.0949 µM): > 1 µM
IC50 (second compound 0.3 µM): > 1 µM
IC50 (second compound 0.949 µM): > 1 µM
IC50 (second compound 3 µM): > 1 µM
Compound: CNC(C)C(=O)NC1CN(S(=O)(=O)c2cccc(S(=O)(=O)N3CCC4CCC(C(=O)NC(c5ccccc5)c5ccccc5)N4C(=O)C(NC(=O)C(C)NC)C3)c2)CCC2CCC(C(=O)NC(c3ccccc3)c3ccccc3)N2C1=O (stereo not drawn) + CCN1C(C(=O)NC23CCC(C(=O)O)(CC2)CC3)C(c2cccc(Cl)c2F)C2(C(=O)Nc3cc(Cl)ccc32)C12CCCCC2
viability, T/C (second compound 0.00949 µM, first compound 0.00316 µM): 92.4%
viability, T/C (second compound 0.00949 µM, first compound 0.01 µM): 87.3%
viability, T/C [1]: 111%
viability, T/C [2]: 96%
viability, T/C [3]: 87%
viability, T/C [4]: 86.3%
viability, T/C (second compound 0.03 µM, first compound 0.00316 µM): 96.4%
viability, T/C (second compound 0.03 µM, first compound 0.01 µM): 86.5%
viability, T/C [7]: 88.5%
viability, T/C [8]: 87.7%
viability, T/C [9]: 87.5%
viability, T/C [10]: 73.1%
viability, T/C (second compound 0.0949 µM, first compound 0.00316 µM): 102%
viability, T/C (second compound 0.0949 µM, first compound 0.01 µM): 105%
viability, T/C [13]: 85.2%
viability, T/C [14]: 94.7%
viability, T/C [15]: 91.4%
viability, T/C [16]: 89.8%
viability, T/C (second compound 0.3 µM, first compound 0.00316 µM): 104%
viability, T/C (second compound 0.3 µM, first compound 0.01 µM): 104%
viability, T/C [19]: 98.4%
viability, T/C [20]: 91.5%
viability, T/C [21]: 94.2%
viability, T/C [22]: 70.3%
viability, T/C (second compound 0.949 µM, first compound 0.00316 µM): 99%
viability, T/C (second compound 0.949 µM, first compound 0.01 µM): 90.2%
viability, T/C [25]: 98.8%
viability, T/C [26]: 80.3%
viability, T/C [27]: 78.8%
viability, T/C [28]: 84.4%
viability, T/C (second compound 3 µM, first compound 0.00316 µM): 78.2%
viability, T/C (second compound 3 µM, first compound 0.01 µM): 87.8%
viability, T/C [31]: 82.8%
viability, T/C [32]: 73.5%
viability, T/C [33]: 69.3%
viability, T/C [34]: 65.4%
